According to ChEMBL document CHEMBL5096200, “A short survey of dengue protease inhibitor development in the past 6 years (2015-2020) with an emphasis on similarities between DENV and SARS-CoV-2 proteases” (Bioorg Med Chem, 2021):
Converted amounts (≈) assume the structure as drawn.

How the values were obtained:
dengue virus type 2 [1] = test: Antiviral activity against DENV2; type: functional, organism-based
[2] = Antiviral activity against DENV2 infected in human Huh-7 cells assessed as log reduction of viral titre measured at 1 uM measured after 72 hrs; type: functional, dengue virus type 2
[3] = Antiviral activity against DENV2 infected in human K562 cells assessed as log reduction of viral titre measured at 1 uM measured after 72 hrs; type: functional, dengue virus type 2
[4] = Permeability of the compound at pH 7.4; type: ADME; conditions: PAMPA, read-out: permeability
dengue virus type 2 [5] = test: Antiviral activity against DENV2 assessed as inhibition of viral replication; type: functional, organism-based
dengue virus type 2 [6] = test: Antiviral activity against DENV2 infected in human Huh-7 cells assessed as inhibition of viral replication measured after 72 hrs post infection by qRT-PCR analysis; type: functional, organism-based; conditions: Huh-7, 72 h
dengue virus type 4 = test: Antiviral activity against DENV4 infected in human Huh-7 cells assessed as inhibition of viral replication measured after 72 hrs post infection by qRT-PCR analysis; type: functional, organism-based; conditions: Huh-7, 72 h
dengue virus type 3 = test: Antiviral activity against DENV3 infected in human Huh-7 cells assessed as inhibition of viral replication measured after 72 hrs post infection by qRT-PCR analysis; type: functional, organism-based; conditions: Huh-7, 72 h
dengue virus type 1 [7] = test: Antiviral activity against DENV1 infected in human Huh-7 cells assessed as inhibition of viral replication measured after 72 hrs post infection by qRT-PCR analysis; type: functional, organism-based; conditions: Huh-7, 72 h
Genome polyprotein [8] = target: T1, Genome polyprotein (dengue virus type 2, UniProt P29990); test: Binding affinity to DENV2 NS2B/NS3 protease assessed as inhibition constant
T1 sequence (P29990 1346-1475 limits assumed): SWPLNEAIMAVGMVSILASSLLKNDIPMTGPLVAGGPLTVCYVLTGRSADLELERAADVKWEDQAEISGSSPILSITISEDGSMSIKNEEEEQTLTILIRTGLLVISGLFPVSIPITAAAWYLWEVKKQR
T1 sequence (P29990 1476-2093 limits assumed): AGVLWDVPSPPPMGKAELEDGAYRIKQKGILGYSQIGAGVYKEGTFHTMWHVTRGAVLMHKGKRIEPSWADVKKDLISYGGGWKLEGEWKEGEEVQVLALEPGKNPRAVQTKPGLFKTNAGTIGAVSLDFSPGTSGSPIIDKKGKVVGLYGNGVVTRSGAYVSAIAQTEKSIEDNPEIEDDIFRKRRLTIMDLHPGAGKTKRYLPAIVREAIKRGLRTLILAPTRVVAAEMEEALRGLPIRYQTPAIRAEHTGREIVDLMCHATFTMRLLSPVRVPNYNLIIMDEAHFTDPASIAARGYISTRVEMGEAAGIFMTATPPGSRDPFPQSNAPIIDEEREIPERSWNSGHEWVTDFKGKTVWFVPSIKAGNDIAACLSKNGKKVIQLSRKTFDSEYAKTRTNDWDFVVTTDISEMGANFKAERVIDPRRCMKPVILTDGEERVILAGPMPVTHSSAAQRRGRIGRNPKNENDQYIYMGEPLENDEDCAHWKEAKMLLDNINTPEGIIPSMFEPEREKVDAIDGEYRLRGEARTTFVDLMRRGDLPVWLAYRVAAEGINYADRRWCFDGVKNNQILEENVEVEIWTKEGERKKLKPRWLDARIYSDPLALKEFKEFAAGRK

Genome polyprotein [9] = target: T1, Genome polyprotein; test: Inhibition of DENV2 NS2B-NS3 protease
[10] = Inhibition of DENV2 pro; set-up: species or system dengue virus type 2
Genome polyprotein [11] = target: T1, Genome polyprotein; test: Inhibition of DENV2 NS2B-NS3 protease using Boc-Gly-Arg-Arg-MCA as substrate by fluorescence assay
dengue virus type 2 [12] = test: Antiviral activity against Dengue virus 2 infected in african green monkey Vero cells assessed as reduction in viral titer; type: functional, organism-based
[13] = Inhibition of DENV2 protease infected in human HeLa cells; type: cell-based, dengue virus type 2; conditions: Dengue virus
Genome polyprotein [14] = target: T1, Genome polyprotein; test: Inhibition of DENV2 NS2B-NS3 protease using fluorophore-tagged Bz-nKRR-AMC as substrate preincubated for 30 mins followed by substrate addition measured after 90 mins by microplate reader analysis
Genome polyprotein [15] = target: T1, Genome polyprotein; test: Inhibition of DENV NS2B/NS3 pro
[16] = Antiviral activity against DENV2 infected in BHK-21 cells assessed as inhibition of viral replication; type: functional, cell-based, dengue virus type 2; conditions: Dengue virus
[17] = Cytotoxicty against BHK-21 cells assessed as reduction in cell viability; type: toxicity, cell-based; conditions: Mesocricetus auratus (golden hamster)
Dengue virus = test: Antiviral activity against Dengue virus assessed as reduction in viral titer at 50 uM preincubated for 1 hr measured after 24 hrs post infection by plaque assay relative to control; type: functional; set-up: scale not given: the % may be the effect or the level left; conditions: time 25 hrs
[18] = Antiviral activity against Dengue virus 4 infected in african green monkey Vero cells assessed as reduction in viral titer preincubated for 1 hour with cells followed by viral infection and measured upto 7 days by plague assay relative to control; type: functional, dengue virus type 4; conditions: time <= 7 day
dengue virus type 1 [19] = test: Antiviral activity against Dengue virus 1 infected in african green monkey Vero cells assessed as reduction in viral titer preincubated for 1 hour with cells followed by viral infection and measured upto 7 days by plague assay relative to control; type: functional; conditions: time <= 7 day
[20] = Antiviral activity against Dengue virus 2 infected in african green monkey Vero cells assessed as reduction in viral titer preincubated for 1 hour with cells followed by viral infection and measured upto 7 days by plague assay relative to control; type: functional, dengue virus type 2; conditions: time <= 7 day
[21] = Antiviral activity against Dengue virus 3 infected in african green monkey Vero cells assessed as reduction in viral titer preincubated for 1 hour with cells followed by viral infection and measured upto 7 days by plague assay relative to control; type: functional, dengue virus type 3; conditions: time <= 7 day
Genome polyprotein [22] = target: T1, Genome polyprotein; test: Inhibition of DENV-2 NS2bNS3 pro
Genome polyprotein [23] = target: T1, Genome polyprotein; test: Inhibition of DENV-2 NS2B/NS3 protease expressed in Escherichia coli XL1 using Boc-GRR-MCA as substrate preincubated for 10 mins followed by substrate addition and measured after 60 mins
[24] = Antiviral activity against DENV2 infected in human HepG2 cells measured after 48 hrs by plaque assay; type: functional, cell-based, dengue virus type 2; conditions: Dengue virus, HepG2, 48 h
Genome polyprotein [25] = target: T1, Genome polyprotein; test: Inhibition of DENV2 NS2B-NS3 protease using […] as substrate preincubated for 10 mins followed by substrate addition and incubated for 60 mins by fluorescence spectroscopy assay
[26] = Antiviral activity against DENV2 infected in african green monkey Vero cells assessed as reduction of viral titre by viral plaque reduction assay; type: functional, cell-based, dengue virus type 2; conditions: Dengue virus
[27] = Inhibition of West Nile Virus NS2B (residues 1393 to 1440 )/NS3pro (residues 1476 to 1687) protease expressed in Escherichia coli BL21 (DE3) using e Pyr- RTKR-AMC as substrate preincubated for 30 mins followed by substrate addition and incubated for 90 mins by fluorescence spectrophotometry assay
[28] = Antiviral activity against DENV-2 NGC infected in african green monkey Vero B cells assessed as reduction in virus induced cytopathic effect; type: functional, cell-based, dengue virus type 2; conditions: Dengue virus
Genome polyprotein [29] = target: T1, Genome polyprotein; test: Inhibition of DENV NS2B/NS3 protease transfected in human Huh-7 cells using 7-amino-4-methylcoumarin (AMC) fluorophore-linked peptide substrate Boc-GRR-AMC as substrate by fluoroscence based assay; type: cell-based
[30] = Inhibition of DENV2 pro infected in human Huh-7 cells using 7-amino-4-methylcoumarin (AMC) fluorophore-linked Boc-GRR-AMC as substrate incubated for 30 mins; type: cell-based, dengue virus type 2; conditions: Dengue virus, Huh-7, 0.5 h
dengue virus type 2 [31] = test: Antiviral activity against DENV-2 infected in human Huh-7 cells assessed as reduction in viral RNA treated for 3 days by qRT-PCR analysis; type: functional, organism-based; conditions: Huh-7, 72 h
dengue virus type 2 [32] = test: Antiviral activity against DENV2 infected in human Huh-7 cells using Boc-GRR-AMC as substrate incubated for 30 mins by fluorescence spectroscopy assay; type: functional, organism-based; conditions: Huh-7, 0.5 h
dengue virus type 2 [33] = test: Antiviral activity against DENV2 (TR1751) infected in BHK-21 cells assessed as reduction in virus titre at 100 uM by focus forming assay relative to control; type: functional; set-up: scale not given: the % may be the effect or the level left
dengue virus type 2 [34] = test: Antiviral activity against DENV2 (TR1751) infected in BHK-21 cells assessed as reduction in virus titre at 1000 uM by focus forming assay relative to control; type: functional; set-up: scale not given: the % may be the effect or the level left

For `O=C1c2c(O)ccc([N+](=O)[O-])c2C(=O)c2c([N+](=O)[O-])ccc(O)c21`, the EC50 (dengue virus type 2 [1]) was 4.2 µM, the “log(activity)” value [2] was over 1 PFU/ml and the “log(activity)” value [3] was over 1 PFU/ml. The Papp [4] was 4.45 ×10⁻⁶ cm/s.
Compound `CC(=O)O[C@H]1CC(C)(C)C(=C=C/C(C)=C/C=C/C=C/C=C(C)/C=C2C=C(/C=C/[C@@]34O[C@]3(C)C[C@@H](O)CC4(C)C)C(=O)O/2)[C@](C)(O)C1` has an EC50 (dengue virus type 2 [5]) of 4.5 µM, an EC50 (dengue virus type 2 [6]) of 4.5 µM and an EC50 (dengue virus type 4) of 5.84 µM. For the same compound, the EC50 (dengue virus type 3) was 5.84 µM and the EC50 (dengue virus type 1 [7]) was 5.84 µM.
`N#C/C(=C\c1ccc(O)cc1)C(N)=O` gave a Ki (Genome polyprotein [8]) of 35.7 µM, a Ki (Genome polyprotein [9]) of 35.7 µM and a Papp [4] of 8.4 ×10⁻⁶ cm/s.
Work on `N=C(N)NCCC[C@H](NC(=O)c1nccs1)C(=O)N[C@@H](CCCCN)C(=O)N[C@@H](C(N)=O)c1ccc(OCc2ccc(C(F)(F)F)cc2)cc1` yielded an IC50 [10] of 0.018 µM.
For `CCCCC1C(C(=O)N(C)OC)C(c2ccccc2)CCN1C(=O)OC(C)(C)C` (centres undefined), the IC50 (Genome polyprotein [11]) was 257 µM.
For `O=C(Nc1nc2cc(O)c(O)cc2s1)c1ccccc1Sc1ccc(C(F)(F)F)cc1`, the IC50 [10] was 3.6 µM and the EC50 (dengue virus type 2 [12]) was over 3 µM.
Compound `CCCCCC(=O)N[C@H](C(=O)NCc1ccc(NC(=N)N)cc1)c1ccc(OCc2ccccc2)cc1` has an EC50 [13] of 0.49 µM.
`COc1ccc(S(=O)(=O)n2nc(Oc3ccc(-c4ccccc4)cc3)cc2N)cc1` showed an IC50 (Genome polyprotein [14]) of 2.9 µM.
With `N=C(N)NCCC[C@@H](NC1NC(=O)C(N[C@H](CCCCN)C(=O)O)NC(=O)C(N2CCC[C@@H]2C(=O)O)NC(=O)C(N[C@H](Cc2ccccc2)C(=O)O)NC(=O)C(N[C@H](CO)C(=O)O)NC(=O)C(N[C@@H](Cc2ccccc2)C(=O)O)NC(=O)C(N[C@@H](CO)C(=O)O)NC(=O)[C@H](CCCCN)NC1=O)C(=O)O` (some centres undefined) the IC50 [10] was 0.95 µM.
Compound `Cc1c(O)cccc1C(=O)NC(CSc1ccccc1)C(O)CN1CC2CCCCC2C[C@H]1C(=O)NC(C)(C)C` (some centres undefined) has an EC50 (dengue virus type 2 [1]) of 3.5 µM.
With `Cc1cc(O)c(S(=O)(=O)O)cc1Cc1cc(S(=O)(=O)O)c(O)c(Cc2cc(S(=O)(=O)O)c(O)cc2C)c1C` the IC50 (Genome polyprotein [15]) was 0.815 µM, the IC50 [16] was 4.99 µg/mL (≈ 8.48 µM) and the IC50 [17] was 459 µg/mL (≈ 781 µM).
Work on `C[C@@H](CC[C@H](O)[C@](C)(O)CO)[C@@H]1CC[C@]2(C)C3=CC[C@@H]4C(C)(C)C(=O)CC[C@@]4(C)C3=CC[C@@]12C` yielded an Activity (Dengue virus) of 40%.
With `N#C/C(=C/c1ccc(-c2ccc(C(=O)O)cc2)s1)c1nc2cc(Cl)ccc2[nH]1` the “inhibition (INH)” value [18] was 73%, the “inhibition (INH)” value (dengue virus type 1 [19]) was 50% and the “inhibition (INH)” value [20] was 83%. For the same compound, the “inhibition (INH)” value [21] was 75% and the IC50 (Genome polyprotein [22]) was 5.95 µM.
For `CCCCC(=O)Nc1nc(SC(=O)CCCC)c2nc[nH]c2n1`, the IC50 (Genome polyprotein [23]) was 0.38 µM.
In the case of `CCCCC1C(C(=O)OCC)C(c2ccccc2)CCN1C(=O)OC(C)(C)C` (centres undefined), the IC50 (Genome polyprotein [11]) is reported as 214 µM and the EC50 [24] is reported as 3.2 µM.
Work on `Oc1c(C(Nc2ccccc2)c2ccccn2)ccc2cccnc12` (centres undefined) yielded a Ki (Genome polyprotein [8]) of 17 µM, a Ki (Genome polyprotein [9]) of 17 µM and a Papp [4] of 4.12 ×10⁻⁶ cm/s.
Compound `COc1ccc(C(=O)CN2C/C(=C/c3ccc([N+](=O)[O-])cc3)C(=O)/C(=C\c3ccc([N+](=O)[O-])cc3)C2)cc1` has an IC50 (Genome polyprotein [25]) of 16.2 µM.
With `O=C1/C(=C\c2ccc([N+](=O)[O-])cc2)CN(CC(=O)c2ccc(F)cc2)C/C1=C/c1ccc([N+](=O)[O-])cc1` the IC50 (Genome polyprotein [25]) was 15.2 µM.
`O=C1OC2(c3ccccc31)c1cc(I)c(O)c(I)c1OC1C(I)=C(O)C(I)=CC12` (centres undefined) gave an EC50 (dengue virus type 2 [1]) of 1.2 µM.
Compound `O=C(O)c1ccccc1-c1c2cc(I)c(=O)c(I)c-2oc2c(I)c(O)c(I)cc12` has an EC50 [26] of 1.2 µM.
For `COc1ccc(S(=O)(=O)n2nc(OC(=O)c3ccccc3)cc2N)cc1`, the IC50 [27] was 0.105 µM.
`Cc1c(O)cccc1C(=O)N[C@@H](CSc1ccccc1)[C@H](O)CN1C[C@H]2CCCC[C@H]2C[C@H]1C(=O)NC(C)(C)C` showed an EC50 [28] of 3.5 µM.
Work on `COC(=O)c1[nH]c2ccc(Cl)cc2c1C(=O)c1cc(OC)c(OC)c(OC)c1` yielded an EC50 (Genome polyprotein [29]) of 4.7 µM, an EC50 (dengue virus type 2 [5]) of 4.6 µM and an EC50 [30] of 6.7 µM. For the same compound, the EC50 (dengue virus type 2 [31]) was 4.6 µM and the EC50 (dengue virus type 2 [32]) was 4.6 µM.
`Oc1cc(O)c2c(c1)O[C@H](c1ccc(O)c(O)c1)[C@H](O)C2` [(-)-EPICATECHIN] showed an Activity (dengue virus type 2 [33]) of 77.7% and an Activity (dengue virus type 2 [34]) of 66.2%.
With `COc1cc(O)c(C(=O)[C@@H]2[C@H](CC=C(C)C)C(C)=CC[C@H]2c2ccccc2)c(O)c1` [PANDURATIN A] the IC50 (Genome polyprotein [25]) was 57.3 µM.
